Results: patent US5824657A, “Aminoacyl sulfamides for the treatment of hyperproliferative disorders” (priority 1997, dated 1998)

Assays:
[1] = test system: bacterial growth; conditions: Osada and Isono 1985; cited from earlier work
[2] = test system: aminoacyl-tRNA synthetases (aaRS) isolated from HeLa cells; assay: IC50 determination, aaRS charging and trichloroacetic acid precipitation assay, aaRS partially purified from HeLa cell extracts; format: biochemical; conditions: preincubation 20 minutes at 25° C., reaction 5-20 minutes
Method: IC50 determinations for the aminoacyl-tRNA synthetases (aaRS) isolated from HeLa cells were carried out using a modification of the aaRS charging and trichloroacetic acid precipitation assay described previously (see examples: D. Kern et. al., Biochemie, 61, 1257-1272 (1979) and J. Gilbart et. al. Antimicrobial Agents and Chemotherapy, 37(1), 32-38 (1993)). […] For practical purposes, the minimal acceptable value is approximately 2000 cpm per 10 minute reaction. The final dilution of the HeLa extract in the assays for the aaRS enzymes varies from 50 to 1200-fold.
Test compounds were typically present as serial dilutions in concentrations ranging from 0.35 nM to 35 μM. Test compound solutions were prepared by dissolving test compounds in 100% dimethyl sulfoxide and diluting to the final concentration with 50 mM HEPES, pH 7.5. IC50 determinations were typically performed in duplicate with each experiment containing 4-8 concentrations of test compound and with duplicate controls containing no inhibitor.
The reaction was incubated at 25° C. for 5-20 minutes. At specified time points a 15 microliter aliquot was removed and added to a well of a Millipore filtration plate (Multiscreen-FB, MAFB NOB 10) containing 100 microliters of cold 5% (wt/vol) trichloroacetic acid. Trichloroacitic acid precipitable material was collected by filtration on a Millipore Multiscreen filtration station, washed twice with cold 5% trichloroacetic acid, twice with water, and dried. Plates were typically allowed to air dry for several hours or baked at 50° C. in a vacuum oven for 30 minutes. The radioactivity on the dried plates was quantitated by the addition of Packard Microscint-20 to the wells and counting with a Packard TopCount scintillation counter.
Inhibitor activity typically was reported as a percentage of the control aaRS activity. […] The IC50 (in nM, Hela Cells) values of representative compounds of the present invention are listed in column 5 of Table I.

[3] = test system: human epidermoid carcinoma cell line A-253 (ATCC HTB 41); assay: MTT assay, human epidermoid carcinoma cell line; format: cell-based; conditions: A253, MTT assay, exposure 72 hours, plot extended by eye for compounds active at lowest dose, read-out: IC50 Human Epidermoid Carcinoma Cells ATCC # HTB 41
Method: The MTT assay was used as a model to measure the inhibitory effects of the compounds of Formula I. The MTT assay is considered the most convenient modern assay for the determination of cell viability and cell proliferation. An MTT assay kit is commercially available (Chemicon International Inc., Temecula, Calif.). The MTT assay was performed according to manufacturer's instructions as outlined below.
A human epidermoid carcinoma cell line, designated as A-253 (ATCC HTB 41), was obtained in frozen vials from the American Type Culture Collection, Rockville, Md. Monolayer cultures were established from the vials by growth in RPMI 1640 medium supplemented with 10% fetal bovine serum (heat-inactivated), 2 mM L-glutamine, and pen-strep (100 units/ml; 100 μg/ml). The cultures were incubated at 37±1.5° C. in 5±1% CO2 in humidified air and were passaged weekly to avoid overgrowth. The laboratory cultures used for the present study were at passage seven after receipt of frozen stocks from ATCC.
Compounds of Formula I in powder form were stored at room temperature in plastic micro centrifuge tubes. Each tube was placed in a plastic bag containing desiccant. Each test compound was prepared as a 2 mg/ml solution in RPMI 1640 medium (non-supplemented) on the day of use, and the appropriate dilutions were prepared with the same vehicle.
Each compound was handled by sterile techniques in Class II, Type B biological safety cabinets.
The reference control compound was methotrexate at concentrations of 0.5 μg/ml to 50 μg/ml. A 1 mg/ml stock was prepared on the day of dosing and diluted to the appropriate concentrations using RPMI 1640 medium (non-supplemented).
A blank control was included in the MTT assay in order to determine the absorbance associated with the absence of any cells. This control was RPMI 1640 culture medium carried through the same procedures used to culture the cells in the microwell plates and to conduct the MTT assay color development. The microwell plate reader was zeroed against the blank control prior to recording the absorbance in the test wells.
Laboratory monolayer cultures of A-253 cells were trypsinized and seeded at a concentration of 24,000 cells in 0.05 ml of complete RPMI 1640 culture medium per well in 96-well plates. Eight wells in a column were seeded for each test condition. The blank control was prepared by adding 0.05 ml of culture medium (no cells) to 8 wells in the first column of each plate. A separate microwell plate was used for each compound of Formula I.
The test compound treatments were initiated immediately after seeding the cells by adding 0.05 ml of treatment medium to each microwell. Ten different test compound concentrations were prepared in culture medium (without serum), and each concentration was applied to a volume of eight wells on the appropriate plate. The final concentrations in the wells were 1000, 500, 250, 100, 50, 25, 10, 5, 2.5, and 1 μg/ml.
An untreated (zero-dose) condition was included as a column of 8 wells on each plate. The zero-dose and blank control wells received 0.05 ml of culture medium (without serum). The microwell plates were placed in an incubator at 37±1.5° C. in 5% CO2 in humidified air for an exposure period of 72±0.5 hours.
After the exposure period, 0.1 ml of MTT dye solution (0.5 mg/ml in serum free RPMI 1640 medium) was added to each micowell. The cultures were returned to the incubator for 2±0.1 hours. Then the medium was removed from each well and placed into a clean microwell plate for temporary storage. A volume of 0.1 ml of color development solution (Solution C, isopropanol with 0.04M HCl, Chemicon MTT Assay kit, Chemicon International Inc., Temecula, Calif.) was added to each new microwell. The contents were carefully mixed and allowed to sit at room temperature for approximately 1 hour. The medium that was saved from each microwell then was pipetted back into the well from which it originally came. […]

[4] = test system: normal human skin fibroblasts cell line ATCC CRL 1501; assay: MTT assay, normal skin fibroblasts; format: cell-based; conditions: Skin fibroblast, similar manner to HTB 41 assay
Method: The MTT assay was used as a model to measure the inhibitory effects of the compounds of Formula I. The MTT assay is considered the most convenient modern assay for the determination of cell viability and cell proliferation. […] The MTT assay was performed according to manufacturer's instructions as outlined below.
The cultures were returned to the incubator for 2±0.1 hours. Then the medium was removed from each well and placed into a clean microwell plate for temporary storage. A volume of 0.1 ml of color development solution (Solution C, isopropanol with 0.04M HCl, Chemicon MTT Assay kit, Chemicon International Inc., Temecula, Calif.) was added to each new microwell. […] The absorbance at 540 nm wavelength was determined in a microwell plate reader within two hours of the final preparation of the plates.
The absorbance at 540 nm was recorded for each well by the microwell plate reader after the instrument was zeroed against the blank controls for each plate. The mean absorbance for each test condition was calculated and compared to the mean absorbance for the zero-dose wells in order to obtain percent values. […]

[5] = format: in vitro ADME, human
Method: Five formulations of Compound XIV were prepared for in vitro study. The formulations are represented in Table III
Franz static diffusion chambers were filled with a 4% BSA isotonic buffered saline and equilibrated to a temperature of 37° C. by a circulating water pump. Excised human cadaver skin (~0.2 mm thickness), which is either intact or tape-stripped, is placed onto each chamber.
The test formulations containing non-radioactive Compound XIV were spiked with tritiated Compound XIV. The specific radioactivity was about 0.05 μCi/mg test formulation. Spiked formulations were applied to the skin surface. The specific radioactivity in the stratum corneum, epidermis, dermis and the reservoir were measured at 1, 3, 6 and 24 h time points by liquid scintillation counting, to investigate cumulative penetration at each time point. The specific activity is expressed as a percentage relative to the total recovery from the reservoir, skin wipes, and the respective skin layers at the end of each experiment.
Each of the five formulations were tested on intact skin (5 replicates each) and tape-stripped skin (only in one diffusion cell) to investigate cumulative penetration at 0, 1, 3, 6, and 24 hours and tissue recovery was measured at 24 hours. […]

[6] = Acute toxicity in the mouse, intraperitoneal
Method: Six groups containing 5 CD-1 female mice (Charles River Lab, Mass.) weighing 19-23 g were used in the experiment. Water and Agway rodent chow were provided ad libitum throughout the study. The laboratory animals were handled according to the institutional animal husbandry Standard Operating Procedures.
The solution was filtered with 0.2 μm Nalgene syringe filter and then further diluted serially with normal saline by 5-fold (0.6 ml to 3.0 ml) to 0.016 mg/ml. Group 1 animals were injected intraperitoneally (i.p.) with 10 ml/kg normal saline as negative controls. Groups 2 to 6 were given Compound XIV i.p. at 100, 20, 4, 0.8 and 0.16 mg/kg, respectively.
The LD50 of the compound was calculated by the Method of Probits (See Probit Analysis, 3rd Edition, D. J. Finney, Cambridge University Press, Cambridge, 1971). All surviving animals were sacrificed after the last observation on seventh day post-treatment.

Row | Compound | inhibition of bacterial growth [1] | IC50 [2] [nM] | IC50 [3] [nM] | IC50 [4] [nM] | penetration of target tissue, epidermis [5] | mortality ([6]; i.p. 100 mg/kg (group 2)) | 95% confidence limit of the LD50 ([6]; mouse, in vivo, ip) [mg/kg] | LD50 at 168 h ([6]; mouse, in vivo, ip) [mg/kg] | tolerability ([6]; mouse, in vivo, ip) | body weight loss after injection ([6]; mouse, in vivo, ip, 20 mg/kg) | symptoms after dosing ([6]; mouse, in vivo, ip, 20 mg/kg) | symptoms after dosing ([6]; mouse, in vivo, ip, 100 mg/kg)
1 | C[C@H](N)C(=O)NS(=O)(=O)OC[C@H]1O[C@@H](n2cnc3c(N)nc(Cl)nc32)[C@H](O)[C@@H]1O [ascamycin] | ineffective inhibitor against bacterial growth | – | – | – | – | – | – | – | – | – | – | –
2 | Nc1ncnc2c1ncn2[C@@H]1O[C@H](CNS(=O)(=O)NC(=O)[C@@H](N)Cc2ccccc2)[C@@H](O)[C@H]1O [Compound XIV, 5'-deoxy-adenosine 5'-N-(N-L-phenylalanyl)sulfamide] | – | 5 | 530 | 5580 | penetrates the target tissue, epidermis, in significant concentration at 6 hours and levels are generally increased at 24 hours | Most of the group 2 mice died between 8 to 24 hours after injection | 24 to 63 | 44 | a high dose of Compound XIV was tolerated | about 10% | no unusual symptoms observed | showed loose hair starting at 3-4 hours after dosing and they also lost their appetite and became less active
